Laboratory results from publication PMC8776995 (Frontiers in Chemistry, 2022).
Where “and” joins values, the source holds several entries; their conditions need not be identical. Identical values can stand only once.

Columns and labels:
wild-type EGFR = wild-type EGFR (Homo sapiens, UniProt P00533); assay: EGFR kinase assay (ELISA); conditions: for IC50: IC50 (μM) EGFR, ELISA, 3 μmol/L ATP; for A450: raw ELISA absorbance
H460 cells = assay: CCK-8 antiproliferation assay, H460; conditions: for Inhibitory efficacy: H460 cells; for IC50: NCI-H460, 48 h, read-out: IC50 (μM) H460, CCK-8, 48 h, average ± SD of three independent experiments
A549 cells = assay: CCK-8 antiproliferation assay, A549; conditions: for Inhibitory efficacy: A549 cells; for IC50: A549, 48 h, read-out: IC50 (μM) A549, CCK-8, 48 h, average ± SD of three independent experiments
PC-9 cells = assay: CCK-8 antiproliferation assay, PC-9; conditions: Homo sapiens, PC-9, 48 h, read-out: IC50 (μM) PC-9
Procedure: The compounds were dissolved in DMSO to make a 20 μM stock solution and diluted to the concentration of working solutions with complete growth medium before administration.
Cells were seeded in 96-well plates: 3,000–5,000 cells/well in 100 ul. One day after seeding, the test compounds at concentration between 1.0 and 16.0 μ M or 0.1% DMSO (as control) were added to cells in triplicate. 48 h later, CCK-8 was added and incubated the plate for 1–4 h in the incubator. The absorbance at 450 nm were measured using a microplate reader (Bio-Tek).

H1975 cells = assay: CCK-8 antiproliferation assay, H1975; conditions: for Inhibitory efficacy: H1975 cells; for IC50: NCI-H1975, 48 h, read-out: IC50 (μM) H1975, CCK-8, 48 h, average ± SD of three independent experiments
[1] = concentration 0.03 nM, one value per replicate column
[2] = concentration 0.03 nM, one value per replicate column, 3e-05 µM
[3] = concentration 0.3 nM, one value per replicate column
[4] = concentration 0.3 nM, one value per replicate column, 0.0003 µM
[5] = concentration 3 nM, one value per replicate column
[6] = concentration 3 nM, one value per replicate column, 0.003 µM
[7] = concentration 30 nM, one value per replicate column
[8] = concentration 30 nM, one value per replicate column, 0.03 µM
[9] = concentration 300 nM, one value per replicate column
[10] = concentration 300 nM, one value per replicate column, 0.3 µM
[11] = concentration 3000 nM, one value per replicate column
[12] = concentration 3000 nM, one value per replicate column, 3 µM
[13] = concentration 30000 nM, one value per replicate column
[14] = concentration 30000 nM, one value per replicate column, 30 µM
[15] = 2uM, given as fraction, Repeat 1-3
[16] = 8uM, given as fraction, Repeat 1-3
[17] = 16uM, given as fraction, Repeat 1-3
[18] = Homo sapiens, NCI-H460, read-out: Inhibitory efficacy, H460 cells, 2uM, given as fraction, Repeat 1-3
[19] = Homo sapiens, NCI-H460, read-out: Inhibitory efficacy, H460 cells, 8uM, given as fraction, Repeat 1-3
[20] = 1uM, given as fraction, Repeat 1-3
[21] = 4uM, given as fraction, Repeat 1-3
[22] = Homo sapiens, A549, read-out: Inhibitory efficacy, A549 cells, 16uM, given as fraction, Repeat 1-3
[23] = Homo sapiens, NCI-H1975, read-out: Inhibitory efficacy, H1975 cells, 4uM, given as fraction, Repeat 1-3
[24] = Homo sapiens, NCI-H1975, read-out: Inhibitory efficacy, H1975 cells, 8uM, given as fraction, Repeat 1-3
[25] = Homo sapiens, NCI-H1975, read-out: Inhibitory efficacy, H1975 cells, 16uM, given as fraction, Repeat 1-3

wild-type EGFR, sequence (P00533 25-1210): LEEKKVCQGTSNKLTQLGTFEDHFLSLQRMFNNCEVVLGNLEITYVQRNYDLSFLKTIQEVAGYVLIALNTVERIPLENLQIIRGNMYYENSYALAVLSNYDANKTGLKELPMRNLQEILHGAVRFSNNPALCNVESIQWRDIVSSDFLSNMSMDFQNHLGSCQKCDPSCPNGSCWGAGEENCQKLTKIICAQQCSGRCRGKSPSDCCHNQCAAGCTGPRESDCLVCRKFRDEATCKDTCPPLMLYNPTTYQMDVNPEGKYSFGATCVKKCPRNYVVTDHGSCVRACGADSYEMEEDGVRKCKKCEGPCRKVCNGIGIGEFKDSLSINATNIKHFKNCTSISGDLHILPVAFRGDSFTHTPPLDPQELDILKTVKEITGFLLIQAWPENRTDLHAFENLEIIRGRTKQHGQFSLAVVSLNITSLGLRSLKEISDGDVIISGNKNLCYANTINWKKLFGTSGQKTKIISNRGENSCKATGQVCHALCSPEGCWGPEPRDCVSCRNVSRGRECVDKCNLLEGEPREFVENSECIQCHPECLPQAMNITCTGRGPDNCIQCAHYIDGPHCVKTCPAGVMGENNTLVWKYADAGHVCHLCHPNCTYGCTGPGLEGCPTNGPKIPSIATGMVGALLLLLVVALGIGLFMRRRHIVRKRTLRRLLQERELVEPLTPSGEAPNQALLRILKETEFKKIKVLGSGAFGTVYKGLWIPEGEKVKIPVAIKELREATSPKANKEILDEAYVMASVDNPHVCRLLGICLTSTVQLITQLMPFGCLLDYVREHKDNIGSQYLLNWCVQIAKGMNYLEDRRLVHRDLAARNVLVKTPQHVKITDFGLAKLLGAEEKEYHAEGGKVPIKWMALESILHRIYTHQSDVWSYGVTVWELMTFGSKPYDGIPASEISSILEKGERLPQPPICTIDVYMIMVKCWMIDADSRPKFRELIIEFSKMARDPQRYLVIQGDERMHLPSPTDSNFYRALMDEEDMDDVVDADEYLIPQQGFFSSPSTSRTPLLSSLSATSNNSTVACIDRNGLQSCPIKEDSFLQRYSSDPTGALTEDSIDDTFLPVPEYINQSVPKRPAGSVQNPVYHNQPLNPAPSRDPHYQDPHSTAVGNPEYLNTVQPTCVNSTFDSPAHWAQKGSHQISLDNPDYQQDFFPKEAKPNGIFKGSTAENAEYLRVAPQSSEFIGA

CCOc1cccc(-n2cc(-c3cccc(Nc4ncnc5cc(OCCOC)c(OCCOC)cc45)c3)nn2)c1 [e14, [6,7-Bis-(2-methoxy-ethoxy)-quinazolin-4-yl]-{3-[1-(3-ethoxy-phenyl)-1H-[1,2,3]triazol-4-yl]-phenyl}-amine]
melting point: 110 to 114 °C | IC50 (wild-type EGFR): 10.7 µM | inhibition at 30 pM (wild-type EGFR; [1]): 3.1% | Inhibition (wild-type EGFR; [2]): 4.587 | inhibition at 0.0003 µM (wild-type EGFR; [3]): 5.16% | Inhibition (wild-type EGFR; [4]): 5.242 | inhibition at 0.003 µM (wild-type EGFR; [5]): 5.55% | Inhibition (wild-type EGFR; [6]): 6.684 | inhibition at 0.03 µM (wild-type EGFR; [7]): 10.7% | Inhibition (wild-type EGFR; [8]): 8.781 | inhibition at 0.3 µM (wild-type EGFR; [9]): 11.4% | Inhibition (wild-type EGFR; [10]): 9.699 | inhibition at 3 µM (wild-type EGFR; [11]): 22.2% | Inhibition (wild-type EGFR; [12]): 18.3486 | inhibition at 30 µM (wild-type EGFR; [13]): 74.1% | Inhibition (wild-type EGFR; [14]): 73.6566 | A450 (wild-type EGFR; concentration 0.0001 nM): 1.058 and 1.062 | A450 (wild-type EGFR; concentration 0.03 nM): 1.034 and 1.027 | A450 (wild-type EGFR; concentration 0.3 nM): 1.018 and 1.022 | A450 (wild-type EGFR; concentration 3 nM): 1.015 and 1.011 | A450 (wild-type EGFR; concentration 30 nM): 0.975 and 0.995 | A450 (wild-type EGFR; concentration 300 nM): 0.97 and 0.988 | A450 (wild-type EGFR; concentration 3000 nM): 0.886 and 0.922 | A450 (wild-type EGFR; concentration 30000 nM): 0.484 and 0.5 | Inhibitory efficacy (H460 cells; [15]): 0.09418 and 0.1351 | Inhibitory efficacy (H460 cells; [16]): 0.192 and 0.3038 | Inhibitory efficacy (H460 cells; [17]): 0.3527 and 0.3328 | IC50 (H460 cells; Homo sapiens): 34.1 ± 2.5 µM | inhibition at 2 µM (H460 cells; [18]): 8.02% | inhibition at 8 µM (H460 cells; [19]): 25.9% | inhibition at 16 µM (H460 cells; Homo sapiens, NCI-H460, read-out: Inhibitory efficacy, H460 cells, 16uM, given as fraction, Repeat 1-3): 30.4% | Inhibitory efficacy (A549 cells; [20]): 0.06697 and 0.1106 | Inhibitory efficacy (A549 cells; [21]): 0.2585 and 0.1473 | Inhibitory efficacy (A549 cells; [17]): 0.1909 and 0.2764 | IC50 (A549 cells; Homo sapiens): > 100 µM | inhibition at 1 µM (A549 cells; Homo sapiens, A549, read-out: Inhibitory efficacy, A549 cells, 1uM, given as fraction, Repeat 1-3): 8.24% | inhibition at 4 µM (A549 cells; Homo sapiens, A549, read-out: Inhibitory efficacy, A549 cells, 4uM, given as fraction, Repeat 1-3): 25.4% | inhibition at 16 µM (A549 cells; [22]): 26.4% | IC50 (PC-9 cells): > 100 µM | Inhibitory efficacy (H1975 cells; [20]): 0.1721 and 0.1925 | Inhibitory efficacy (H1975 cells; [15]): 0.2391 and 0.2224 | Inhibitory efficacy (H1975 cells; [21]): 0.4814 and 0.4311 | Inhibitory efficacy (H1975 cells; [16]): 0.5466 and 0.5764 | Inhibitory efficacy (H1975 cells; [17]): 0.5969 and 0.5615 | IC50 (H1975 cells; Homo sapiens): 7.5 ± 0.49 µM | inhibition at 1 µM (H1975 cells; Homo sapiens, NCI-H1975, read-out: Inhibitory efficacy, H1975 cells, 1uM, given as fraction, Repeat 1-3): 20.6% | inhibition at 2 µM (H1975 cells; Homo sapiens, NCI-H1975, read-out: Inhibitory efficacy, H1975 cells, 2uM, given as fraction, Repeat 1-3): 28.4% | inhibition at 4 µM (H1975 cells; [23]): 34% | inhibition at 8 µM (H1975 cells; [24]): 58.6% | inhibition at 16 µM (H1975 cells; [25]): 57.3%

COCCOc1cc2ncnc(Nc3cccc(-c4cn(Cc5ccccc5Br)nn4)c3)c2cc1OCCOC [e3, [6,7-Bis-(2-methoxy-ethoxy)-quinazolin-4-yl]-{3-[1-(2-bromo-benzyl)-1H-[1,2,3]triazol-4-yl]-phenyl}-amine]
melting point: 94 to 97 °C | IC50 (wild-type EGFR): 68 µM | inhibition at 100 fM (wild-type EGFR; concentration 0.0001 nM (reference for normalisation), one value per replicate column): 0% | inhibition at 30 pM (wild-type EGFR; [1]): 11.8% | Inhibition (wild-type EGFR; [2]): 14.7465 | inhibition at 0.0003 µM (wild-type EGFR; [3]): 17.6% | Inhibition (wild-type EGFR; [4]): 17.0507 | inhibition at 0.003 µM (wild-type EGFR; [5]): 19.3% | Inhibition (wild-type EGFR; [6]): 17.0507 | inhibition at 0.03 µM (wild-type EGFR; [7]): 37.4% | Inhibition (wild-type EGFR; [8]): 28.1106 | inhibition at 0.3 µM (wild-type EGFR; [9]): 42.2% | Inhibition (wild-type EGFR; [10]): 35.4839 | inhibition at 3 µM (wild-type EGFR; [11]): 42.8% | Inhibition (wild-type EGFR; [12]): 36.8664 | inhibition at 30 µM (wild-type EGFR; [13]): 44.9% | Inhibition (wild-type EGFR; [14]): 39.1705 | A450 (wild-type EGFR; concentration 0.0001 nM): 0.398 and 0.464 | A450 (wild-type EGFR; concentration 0.03 nM): 0.376 and 0.432 | A450 (wild-type EGFR; concentration 0.3 nM): 0.365 and 0.427 | A450 (wild-type EGFR; concentration 3 nM): 0.362 and 0.427 | A450 (wild-type EGFR; concentration 30 nM): 0.328 and 0.403 | A450 (wild-type EGFR; concentration 300 nM): 0.319 and 0.387 | A450 (wild-type EGFR; concentration 3000 nM): 0.318 and 0.384 | A450 (wild-type EGFR; concentration 30000 nM): 0.314 and 0.379 | Inhibitory efficacy (H460 cells; [20]): 0.2775 and 0.3081 | Inhibitory efficacy (H460 cells; [15]): 0.3143 and 0.3387 | Inhibitory efficacy (H460 cells; [16]): 0.3004 and 0.3491 | IC50 (H460 cells; Homo sapiens): > 100 µM | inhibition at 1 µM (H460 cells; Homo sapiens, NCI-H460, read-out: Inhibitory efficacy, H460 cells, 1uM, given as fraction, Repeat 1-3): 30.3% | inhibition at 2 µM (H460 cells; [18]): 35% | inhibition at 8 µM (H460 cells; [19]): 29% | Inhibitory efficacy (A549 cells; [17]): 0.1506 and 0.2274 | IC50 (A549 cells; Homo sapiens): > 100 µM | inhibition at 16 µM (A549 cells; [22]): 15.2% | IC50 (PC-9 cells): > 100 µM | Inhibitory efficacy (H1975 cells; [21]): 0.09844 and 0.1507 | Inhibitory efficacy (H1975 cells; [16]): 0.1976 and 0.2347 | Inhibitory efficacy (H1975 cells; [17]): 0.494 and 0.5082 | IC50 (H1975 cells; Homo sapiens): 16.8 ± 1.02 µM | inhibition at 4 µM (H1975 cells; [23]): 11.4% | inhibition at 8 µM (H1975 cells; [24]): 25% | inhibition at 16 µM (H1975 cells; [25]): 44.1%
